Data as given in patent publication US11267825B2 (AICURIS GMBH & CO. KG, priority 2017, dated 2022).

Experiments:
[1] = biological target: HBV core protein (UniProt P03146); assay type: biochemical; conditions: read-out: Assembly Activity (IC50); BODIPY-FL labelled core protein, assembly started with NaCl, read after 6 min
How it was run: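 Fluorescence-quenching assembly assay using E. coli-expressed core protein 1–149 plus Cys150, labelled with BODIPY-FL maleimide, at 1.0–2.0 μM in 50 mM HEPES pH 7.5, 0.5% DMSO. Assembly started with NaCl to […]; fluorescence (ex 477/em 525 nm) read after 6 min. EC50 by non-linear regression, 8-point 0.5-log dilutions.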

[2] = test system: HBV; assay: Determination of HBV DNA from the supernatants of HepAD38 cells (anti-HBV activity); assay type: cell-based, hepatitis B virus; conditions: Hepatitis B virus, 144 h; HBV DNA in HepAD38 supernatant at day 6; read-out: Cell Activity (EC50)
How it was run: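 HepAD38 cells (60,000/well) were treated with half-log compound dilutions in tetracycline-free medium to induce HBV production. On day 6, HBV DNA was purified from filtered supernatant and quantified by real-time PCR against plasmid standards. EC50 values came from non-linear regression of relative copy numbers, typically from three experiments in triplicate.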

HBV core protein, sequence (P03146 whole entry, looked up): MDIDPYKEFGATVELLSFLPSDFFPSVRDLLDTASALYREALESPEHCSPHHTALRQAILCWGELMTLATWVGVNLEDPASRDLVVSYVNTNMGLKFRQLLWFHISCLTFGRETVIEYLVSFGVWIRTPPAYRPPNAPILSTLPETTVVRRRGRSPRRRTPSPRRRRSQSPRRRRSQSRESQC

Row | Compound | IC50 [1] [µM] | EC50 [2] [µM]
1 | O=C(c1cc2ccccc2[nH]1)N1CCc2nc(NCCc3c[nH]cn3)sc2C1 [Example 286, N-[2-(1H-imidazol-4-yl)ethyl]-5-(1H-indole-2-carbonyl)-4H,5H,6H,7H-[1,3]thiazolo[5,4-c]pyridin-2-amine] | < 5 | < 1
2 | O=C(c1cc2ccccc2[nH]1)N1CCc2nc(NC[C@H]3CCCC[C@@H]3O)sc2C1 [Example 288, (1S,2R)-2-({[5-(1H-indole-2-carbonyl)-4H,5H,6H,7H-[1,3]thiazolo[5,4-c]pyridin-2-yl]amino}methyl)cyclohexan-1-ol] | 5 to 10 | < 1
3 | COC(=O)[C@@H]1C[C@H](Nc2nc3c(s2)CN(C(=O)c2cc4ccccc4[nH]2)CC3)CN1 [Example 289, Methyl (2S,4S)-4-{[5-(1H-indole-2-carbonyl)-4H,5H,6H,7H-[1,3]thiazolo[5,4-c]pyridin-2-yl]amino}pyrrolidine-2-carboxylate] | < 5 | < 100
4 | CC(F)(F)c1cc(F)cc2[nH]c(C(=O)N3CCc4nc(N)sc4C3)cc12 [Example 290, 5-[4-(1,1-difluoroethyl)-6-fluoro-1H-indole-2-carbonyl]-4H,5H,6H,7H-[1,3]thiazolo[5,4-c]pyridin-2-amine] | < 5 | < 1
5 | Nc1nc2c(s1)CN(C(=O)c1cc3c(C(F)F)cc(F)cc3[nH]1)CC2 [Example 292, 5-[4-(difluoromethyl)-6-fluoro-1H-indole-2-carbonyl]-4H,5H,6H,7H-[1,3]thiazolo[5,4-c]pyridin-2-amine] | < 5 | < 1
6 | Nc1nc2c(s1)CN(C(=O)c1cc3c(C(F)F)cccc3[nH]1)CC2 [Example 293, 5-[4-(difluoromethyl)-1H-indole-2-carbonyl]-4H,5H,6H,7H-[1,3]thiazolo[5,4-c]pyridin-2-amine] | < 5 | < 1
7 | CN1CCOCC1CNc1nc2c(s1)CN(C(=O)c1cc3ccccc3[nH]1)CC2 (stereo not shown) [Example 294, 5-(1H-indole-2-carbonyl)-N-[(4-methylmorpholin-3-yl)methyl]-4H,5H,6H,7H-[1,3]thiazolo[5,4-c]pyridin-2-amine] | < 5 | < 1
8 | O=C(c1cc2ccccc2[nH]1)N1CCc2nc(N3CC4COCCN4C3)sc2C1 (stereo not shown) [Example 295, 2-(2-{hexahydro-1H-imidazo[4,3-c][1,4]oxazin-2-yl}-4H,5H,6H,7H-[1,3]thiazolo[5,4-c]pyridine-5-carbonyl)-1H-indole] | < 100 | 1 to 10
9 | O=C(c1cc2ccccc2[nH]1)N1CCc2nc(NC(CO)C3CCOC3)sc2C1 (stereo not shown) [Example 297, 2-{[5-(1H-indole-2-carbonyl)-4H,5H,6H,7H-[1,3]thiazolo[5,4-c]pyridin-2-yl]amino}-2-(oxolan-3-yl)ethan-1-ol] | < 5 | < 1
10 | Cc1cc(F)cc2[nH]c(C(=O)N3CCc4nc(NC5(CO)CCC5)sc4C3)cc12 [Example 298, (1-{[5-(6-fluoro-4-methyl-1H-indole-2-carbonyl)-4H,5H,6H,7H-[1,3]thiazolo[5,4-c]pyridin-2-yl]amino}cyclobutyl)methanol] | < 5 | < 1
11 | O=C(c1cc2ccc(Cl)cc2[nH]1)N1CCc2nc(NC3(CO)CCC3)sc2C1 [Example 299, (1-{[5-(6-chloro-1H-indole-2-carbonyl)-4H,5H,6H,7H-[1,3]thiazolo[5,4-c]pyridin-2-yl]amino}cyclobutyl)methanol] | < 5 | < 1
12 | CCc1cccc2[nH]c(C(=O)N3CCc4nc(NC5(CO)CCC5)sc4C3)cc12 [Example 300, (1-{[5-(4-ethyl-1H-indole-2-carbonyl)-4H,5H,6H,7H-[1,3]thiazolo[5,4-c]pyridin-2-yl]amino}cyclobutyl)methanol] | < 5 | < 1
13 | O=C(c1cc2ccc(Cl)cc2[nH]1)N1CCc2nc(N[C@H]3CC[C@@H](O)CC3)sc2C1 [Example 301, (1s,4s)-4-{[5-(6-chloro-1H-indole-2-carbonyl)-4H,5H,6H,7H-[1,3]thiazolo[5,4-c]pyridin-2-yl]amino}cyclohexan-1-ol] | < 5 | < 1
14 | O=C(c1cc2c(Cl)cccc2[nH]1)N1CCc2nc(N[C@H]3CC[C@@H](O)CC3)sc2C1 [Example 302, (1s,4s)-4-{[5-(4-chloro-1H-indole-2-carbonyl)-4H,5H,6H,7H-[1,3]thiazolo[5,4-c]pyridin-2-yl]amino}cyclohexan-1-ol] | < 5 | < 1
15 | Cc1cc(F)cc2[nH]c(C(=O)N3CCc4nc(N[C@H]5CC[C@@H](O)CC5)sc4C3)cc12 [Example 303, (1s,4s)-4-{[5-(6-fluoro-4-methyl-1H-indole-2-carbonyl)-4H,5H,6H,7H-[1,3]thiazolo[5,4-c]pyridin-2-yl]amino}cyclohexan-1-ol] | < 5 | < 1
16 | COC1CCC(Nc2nc3c(s2)CN(C(=O)c2cc4ccccc4[nH]2)CC3)CC1 (stereo not shown) [Example 310, 5-(1H-indole-2-carbonyl)-N-(4-methoxycyclohexyl)-4H,5H,6H,7H-[1,3]thiazolo[5,4-c]pyridin-2-amine] | 5 to 10 | < 1
17 | O=C(c1cc2c(Cl)cccc2[nH]1)N1CCc2nc(NCC3(O)CCC3)sc2C1 [Example 311, 1-({[5-(4-chloro-1H-indole-2-carbonyl)-4H,5H,6H,7H-[1,3]thiazolo[5,4-c]pyridin-2-yl]amino}methyl)cyclobutan-1-ol] | < 5 | < 1
18 | Cc1cc(F)cc2[nH]c(C(=O)N3CCc4nc(NCC5(O)CCC5)sc4C3)cc12 [Example 312, 1-({[5-(6-fluoro-4-methyl-1H-indole-2-carbonyl)-4H,5H,6H,7H-[1,3]thiazolo[5,4-c]pyridin-2-yl]amino}methyl)cyclobutan-1-ol] | < 5 | < 1
19 | O=C(c1cc2c(Cl)cc(F)cc2[nH]1)N1CCc2nc(NCC3(O)CCC3)sc2C1 [Example 313, 1-({[5-(4-chloro-6-fluoro-1H-indole-2-carbonyl)-4H,5H,6H,7H-[1,3]thiazolo[5,4-c]pyridin-2-yl]amino}methyl)cyclobutan-1-ol] | < 5 | < 1
20 | O=C(c1cc2c(F)cc(F)cc2[nH]1)N1CCc2nc(NCC3(O)CCC3)sc2C1 [Example 314, 1-({[5-(4,6-difluoro-1H-indole-2-carbonyl)-4H,5H,6H,7H-[1,3]thiazolo[5,4-c]pyridin-2-yl]amino}methyl)cyclobutan-1-ol] | < 5 | < 1
21 | O=C(Nc1nc2c(s1)CN(C(=O)c1cc3ccccc3[nH]1)CC2)C1CCCCO1 (stereo not shown) [Example 315, N-[5-(1H-indole-2-carbonyl)-4H,5H,6H,7H-[1,3]thiazolo[5,4-c]pyridin-2-yl]oxane-2-carboxamide] | 5 to 10 | < 1
22 | O=C(Nc1nc2c(s1)CN(C(=O)c1cc3c(Cl)cccc3[nH]1)CC2)C1CCOCC1 [Example 316, N-[5-(4-chloro-1H-indole-2-carbonyl)-4H,5H,6H,7H-[1,3]thiazolo[5,4-c]pyridin-2-yl]oxane-4-carboxamide] | < 5 | < 1
23 | O=C(Nc1nc2c(s1)CN(C(=O)c1cc3ccc(Cl)cc3[nH]1)CC2)C1CCOCC1 [Example 318, N-[5-(6-chloro-1H-indole-2-carbonyl)-4H,5H,6H,7H-[1,3]thiazolo[5,4-c]pyridin-2-yl]oxane-4-carboxamide] | < 5 | < 1
24 | O=C(Nc1nc2c(s1)CN(C(=O)c1cc3c(F)cc(F)cc3[nH]1)CC2)C1CCOCC1 [Example 319, N-[5-(4,6-difluoro-1H-indole-2-carbonyl)-4H,5H,6H,7H-[1,3]thiazolo[5,4-c]pyridin-2-yl]oxane-4-carboxamide] | < 5 | < 1
25 | O=C(Nc1nc2c(s1)CN(C(=O)c1cc3c(Cl)cc(F)cc3[nH]1)CC2)C1CCOCC1 [Example 320, N-[5-(4-chloro-6-fluoro-1H-indole-2-carbonyl)-4H,5H,6H,7H-[1,3]thiazolo[5,4-c]pyridin-2-yl]oxane-4-carboxamide] | 5 to 10 | < 1
26 | Cc1cc(F)cc2[nH]c(C(=O)N3CCc4nc(NC(=O)C5CCOCC5)sc4C3)cc12 [Example 321, N-[5-(6-fluoro-4-methyl-1H-indole-2-carbonyl)-4H,5H,6H,7H-[1,3]thiazolo[5,4-c]pyridin-2-yl]oxane-4-carboxamide] | < 5 | < 1
27 | O=C(c1cc2c(C(F)F)ccc(F)c2[nH]1)N1CCc2nc(NCC3CCOC3)sc2C1 (stereo not shown) [Example 322, 5-[4-(difluoromethyl)-7-fluoro-1H-indole-2-carbonyl]-N-[(oxolan-3-yl)methyl]-4H,5H,6H,7H-[1,3]thiazolo[5,4-c]pyridin-2-amine] | < 5 | < 1
28 | O=C(c1cc2c(C(F)F)cccc2[nH]1)N1CCc2nc(NCC3CCOC3)sc2C1 (stereo not shown) [Example 325, 5-[4-(difluoromethyl)-1H-indole-2-carbonyl]-N-[(oxolan-3-yl)methyl]-4H,5H,6H,7H-[1,3]thiazolo[5,4-c]pyridin-2-amine] | < 5 | < 1
29 | O=C(c1cc2c(C(F)F)cc(F)cc2[nH]1)N1CCc2nc(NCC3CCOC3)sc2C1 (stereo not shown) [Example 326, 5-[4-(difluoromethyl)-6-fluoro-1H-indole-2-carbonyl]-N-[(oxolan-3-yl)methyl]-4H,5H,6H,7H-[1,3]thiazolo[5,4-c]pyridin-2-amine] | < 5 | < 1
